Measurements reported in publication PMC7188855, “Nucleic acid recognition and antiviral activity of 1,4-substituted terphenyl compounds mimicking all faces of the HIV-1 Rev protein positively-charged α-helix” (Scientific Reports, 2020).
pEC50, pIC50, pKd: −log10 of the molar value. Where two headings read alike, the source gives them in different places.

Key:
[1] = Cellular viability (CellTiterGlo) in mock infected cells; type: cell-based; conditions: human, mock infected MT-2 cells
Procedure: (§1) The methodology used to perform and analyse these experiments has been reported elsewhere[7],[21],[22]. Briefly, infectious supernatants were obtained from transfection of plasmid pNL4.3-Ren on 293 T cells, MT-2 cells were infected with these supernatants in the presence of the compounds, and anti-HIV activity quantification was performed 48 h post-infection by determining luciferase activity in cell lysates compared to a non-treated control (100%). Cellular viability was evaluated in mock infected cells similarly treated with the same concentrations of compounds using the CellTiterGlo (Promega) assay.

HIV-1 = test: Cellular HIV-1 infection assay (NL4.3-Ren, MT-2 cells); type: cell-based; conditions: Human immunodeficiency virus 1, MT2, 48 h post-infection
Procedure: as §1

[2] = biological target: RRE subdomain IIB-Rev34–50; test: Fluorescence anisotropy displacement of the IIBh-Rev34–50 interaction; conditions: read-out: IC50, RRE subdomain IIB-Rev34–50, 60 nM IIBh, 10 nM frevp, 100 mM KCl, 20 mM NaCl, 2 mM MgCl2
Procedure: These experiments were conducted in a Victor X5 (PerkinElmer) plate reader as described before[7],[21], using 10 nM frevp and 60 nM IIBh. […] Each fluorescence anisotropy experiment was repeated at least two times.

[3] = biological target: RRE subdomain IIB RNA hairpin IIBh; test: Fluorescence intensity binding to fluorescein-labelled IIBh hairpin; design: species or system HIV-1
Text: We next determined whether the terphenyl molecules blocked the interaction between Rev34–50 and subdomain IIB by binding to the RNA and, if so, whether they recognized subdomain IIB in a manner similar to the Rev34–50 α-helix. We first evaluated subdomain IIB association by measuring changes in the fluorescence intensity of a IIBh RNA hairpin construct containing a fluorescein probe attached to unpaired loop IIB residue U23 (Fig. 1D)[21],[22]. […] However, there were significant differences among the compounds.
(§2) These experiments measured association to IIBh-23fl or TARh-8fl RNA molecules labelled with fluorescein at extrahelical loop nucleotides U23 and U8, respectively (Fig. 1D), and were carried out under two different ionic conditions in a Victor X5 plate reader, using excitation and emission wavelengths of 485 and 520 nm, respectively. We also attempted to measure association to an alternative IIBh hairpin containing 2-aminopurine instead of adenine at unpaired loop IIB residue A19[21], but all terphenyls fluoresced at the excitation wavelength of this fluorophore. IIBh-23fl or TARh-8fl (at 100 nM concentration) was equilibrated for 5 minutes after each ligand addition in a buffer containing either 10 mM sodium phosphate pH 6.6 and 0.1 mM EDTA or 10 mM HEPES pH 7.5, 200 mM KCl and 2 mM MgCl2. In addition to the TARh specificity control, the RNA and DNA specificity of the IIBh interactions was assessed by duplicating the experiments in the presence of a 10-fold molar excess (1 μM) of either tRNA^Lys or DNA duplex LTRd. The equilibrium dissociation constants Kd were determined by fitting the fluorescence intensity curves with DYNAFIT[40]. We used one-site, two independent-sites and two interacting-sites binding models for all curves, and the best model was automatically selected by model discrimination analysis, except where indicated. The final graphs were plotted with Prism. All fluorescence intensity experiments were performed at least two times for each compound and condition.

[4] = biological target: TARh hairpin containing the HIV-1 Tat-binding UCU bulge; test: Fluorescence intensity binding to control TARh hairpin
Text: To evaluate the specificity of subdomain IIB recognition, we measured binding to a control TARh hairpin containing the HIV-1 Tat-binding UCU bulge[23] (Fig. 1D). […] We further assessed specificity by duplicating the IIBh-23fl association experiments in the presence of a 10-fold molar excess of tRNA^Lys or a 26-base pair LTRd DNA duplex. The binding curves of the compounds were affected by the presence of competitive tRNA^Lys and to a lesser extent by LTRd (Figs. 4A, S4 and S5 and Tables 2 and S2).
as §2

[5] = system: LTRc, core region of the HIV-1 LTR promoter; test: EMSA of association to LTRc DNA; type: binding; conditions: 20 nM LTRc duplex; 10 mM HEPES pH 7.5, 300 mM KCl, 1 mM MgCl2, 0.5 mM EDTA
Procedure: (§3) The experiments monitoring RRE-Rev inhibition utilized 78 nM full-length RRE and 1.32 μM full-length Rev dissolved in 10 mM HEPES pH 7.5, 300 mM KCl, 1 mM MgCl2 and 0.5 mM EDTA binding buffer, and increasing concentrations of each compound up to 50 μM[21],[39]. The reactions were incubated at room temperature for 20 minutes and loaded onto 8% polyacrylamide gels with TB running buffer. Gels were run at 4 °C for 1–4 hours at 150 V, and the bands were stained with SYBR gold and quantified with Quantity One 4.1 analysis software. Experiments monitoring binding to the 58-base pair HIV-1 LTRc core segment utilized 20 nM LTRc duplex dissolved in the same binding buffer, and increasing concentrations of each compound. The reactions were similarly incubated and loaded onto 20% polyacrylamide gels with TB running buffer. The gels were run at 4 °C for 3.5 hours at 150 V, and the bands were stained and quantified as described above. The specificity of LTRc association was evaluated by duplicating the experiments in the presence of a 100-fold molar excess of DNAd duplex (28-fold base-pair molar excess). In all cases, we monitored the disappearance of the band corresponding to high-order RRE-Rev complexes or free LTRc, and 50% response RC50 values were determined with Prism by fitting the data to a sigmoidal inhibitory model: I−Imin=ImaxC/1+C/RC50 where I is the intensity of the band corresponding to LTRc or high-order RRE-Rev species at compound concentration C, Imax the best-fit value for maximum intensity, and Imin the minimum intensity obtained at the highest concentration of inhibitor. All EMSA experiments were repeated three times for each compound.

high-order RRE-Rev = test: EMSA of full-length RRE-Rev ribonucleoprotein formation; type: binding, HIV-1; conditions: 78 nM RRE, 1.32 μM Rev, 300 mM KCl, 1 mM MgCl2, band of high-order complexes
Text: After the high-affinity interaction between RRE subdomain IIB and the Rev34–50 helix of the first Rev monomer is established, the RRE-Rev ribonucleoprotein is formed by the incorporation of additional Rev units binding to further sites in the RRE (Fig. 3B, right)[9],[10],[13]. Using an electrophoretic mobility shift assay (EMSA) involving full-length RRE and Rev, we also evaluated whether 1,4-terphenyl compounds were capable of interfering with the formation of the ribonucleoprotein. […] The effect was particularly prominent for high-order complexes (containing a greater number of Rev monomers), but the inhibition of low-order complexes by 1d was also detected at concentrations consistent with the IC50 value measured in the IIB-Rev34–50 displacement experiment. Compounds 1b and 3c exerted a weaker effect on the RRE-Rev complex, in agreement with the results obtained in the displacement experiments monitored by fluorescence anisotropy (Fig. 3B and Table 1).
as §3

[6] = low ionic strength, 10 mM sodium phosphate pH 6.6, 0.1 mM EDTA, two-site model, read-out: Kd,1 first-site equilibrium dissociation constant (IIBh), Table S1
[7] = low ionic strength, 10 mM sodium phosphate pH 6.6, 0.1 mM EDTA, two-site model, read-out: Kd,2 second-site equilibrium dissociation constant (IIBh), Table S1
[8] = low ionic strength, 10 mM sodium phosphate pH 6.6, uses Kd1

SMILES | CC50 at 48 h [1] | pEC50 (HIV-1) | pIC50 [2] | pKd [3, 6] | pKd [3, 7] | pKd ([4]; 10 mM sodium phosphate pH 6.6, 0.1 mM EDTA, read-out: Kd (TARh), one-site or first-site Kd1) | pKd ([4]; higher ionic strength, 10 mM HEPES pH 7.5, 200 mM KCl, 2 mM MgCl2, read-out: Kd (TARh), Table S2) | association to LTRc (EMSA) [5] | pIC50 (high-order RRE-Rev) | pKd ([3]; 10 mM sodium phosphate pH 6.6, 0.1 mM EDTA, two-site model, read-out: Kd (IIBh), first-site Kd1) | pKd ([3]; 10 mM sodium phosphate pH 6.6, 0.1 mM EDTA, two-site model, read-out: Kd (IIBh), second-site Kd2 (in brackets)) | pKd ([3]; 10-fold molar excess DNA duplex LTRd, 10 mM sodium phosphate pH 6.6, 0.1 mM EDTA, one-site fit, approximate, read-out: Kd (IIBh+LTRd)) | pKd ([3]; 10-fold molar excess LTRd, 10 mM HEPES pH 7.5, 200 mM KCl, 2 mM MgCl2, read-out: Kd (IIBh+LTRd), one-site or first-site Kd1, Table S2) | pKd ([3]; 10-fold molar excess tRNALys, 10 mM HEPES pH 7.5, 200 mM KCl, 2 mM MgCl2, one-site fit, approximate, read-out: Kd (IIBh+tRNA), Table S2) | pKd ([3]; 10-fold molar excess tRNALys, 10 mM sodium phosphate pH 6.6, 0.1 mM EDTA, one-site fit, approximate, read-out: Kd (IIBh+tRNA)) | pKd ([3]; higher ionic strength, 10 mM HEPES pH 7.5, 200 mM KCl, 2 mM MgCl2, read-out: Kd (IIBh), first-site Kd1, Table S2) | IIB-DNA spec., Kd(IIBh)/Kd(IIBh+LTRd) [3, 8] | IIB-tRNA spec., Kd(IIBh)/Kd(IIBh+tRNA) [3, 8]
Cc1cc(-c2cc(CCN)ccc2CCN)c(C)cc1-c1ccccc1CCN [Compound 4] | > 100 µM | 4.00 to 4.30 | < 4.00 | 5.43 | 4.48 |  |  |  |  |  |  |  |  |  |  |  |  | 
CCOc1cc(CCN)c(-c2cc(C)c(-c3cc(CCN)c(OCC)cc3CCN)cc2C)cc1CCN [Compound 1c] | > 100 µM | < 4.00 | < 4.00 | 6.72 | 4.13 |  |  |  |  |  |  |  |  |  |  |  |  | 
COc1ccc(-c2cc(C)c(-c3cc(CCN)ccc3CCN)cc2C)cc1CCN [Compound 3b] | > 100 µM | < 4.00 | < 4.00 | 5.26 | 4.66 |  |  |  |  |  |  |  |  |  |  |  |  | 
CCc1cc(-c2cc(CCN)c(OC)cc2CCN)c(CC)cc1-c1cc(CCN)c(OC)cc1CCN [Compound 1b] | > 100 µM | < 4.00 | < 4.00 |  |  | < 4.30 | < 4.30 | not detected | < 4.30 | 6.29 | 4.68 | 5.19 | < 4.30 | < 4.30 | 5.06 | < 4.30 | 0.078 | 0.059
COc1ccc(-c2cc(C)c(-c3cc(CCN)c(OC)cc3CCN)cc2C)cc1CCN [Compound 3a] | > 100 µM | 4.45 | < 4.00 | 5.05 | 4.44 |  |  |  |  |  |  |  |  |  |  |  |  | 
CCc1cc(-c2cc(CCCN)c(OC)cc2CCCN)c(CC)cc1-c1cc(CCCN)c(OC)cc1CCCN [Compound 2b] | > 100 µM | < 4.00 | < 4.00 | 6.96 | 4.34 |  |  |  |  |  |  |  |  |  |  |  |  | 
COc1cc(CCCN)c(-c2cc(C)c(-c3cc(CCCN)c(OC)cc3CCCN)cc2C)cc1CCCN [Compound 2a] | > 100 µM | < 4.00 | < 4.00 | 6.17 | 4.60 |  |  |  |  |  |  |  |  |  |  |  |  | 
